Test results taken from patent US5098933A, “Pharmaceutically useful Michael addition products of unsaturated aldehydes and ketones and ascorbic acid” (Theracel Corporation, priority 1990, dated 1992).
Read-outs that look alike come from different tables or passages of the source.

Key:
[1] = system: T- and B- lymphocyte isolated from mouse spleens; experiment: Lymphocyte Blastogenesis Assay; type: in vivo; conditions: for RPMI: no mitogen (Table 8); for activation at 12.5 mg/kg / activation at 25 mg/kg / activation at 50 mg/kg / activation at 100 mg/kg / activation at 200 mg/kg: Mus musculus, Lymphocyte
Text: This assay measures the ability of the compound under test to affect DNA synthesis and mitosis of T- and B- lymphocyte isolated from mouse spleens.
Mitogens are substances which stimulate DNA synthesis and mitosis. The mitogens used in these studies were phytohemaglutinin (PHA) which is isolated from the red kidney bean and concanavalin-A (Con-A) which is isolated form the jack bean. Con-A binds to specific receptors (glycoproteins) containing mannosyl or glycosyl moieties and stimulates all murine T-cells to synthesize DNA, divide, and release lymphokines. Con-A in a soluble form allows distinction between T- and B-cells in the mouse, because although both T- and B-cells can bind 106 molecules of Con-A per cell, only T-cells are stimulated when this lectin is presented in a soluble form. PHA stimulates only subpopulations, T-2 cells, of T-cells in the mouse. Also, Con-A stimulates the production of cytokines such as Interleukin-2 (IL-2). In humans, both T- and B-cells are probably stimulated. The activation of B-cells by PHA may be indirect and mediated by the release of soluble mediators from PHA-activated T-cells.
The lymphocyte blastogenesis test is a method to assess the ability of immunocompetent T- or B-cells to respond to a polyclonal mitogen (i.e. PHA or Con-A) or a specific antigen. It may be performed on lymphocytes obtained from mice treated with immunostimulators in vivo or the entire assay can be performed in vitro. The assay as described below uses minimal doses of polyclonal mitogens to induce blastogenesis (proliferation measure by DNA synthesis), in order to be able to assess the phenomena of amplification.
1. Sacrifice two mice/experimental group by cervical dislocation.
14. […]
15. Include in the experiment a control plate which contains the same cells group as above, but receive a 0.1 ml of media instead of mitogen.
18. After 48 hours all wells receive 0.025 mls of a 0.4 microcurie/ml solution of C-14 methyl thymidine and incubate at 37 C, 5% CO-2 for 18 hours.

[2] = system: plaque forming cells, antibody specific to sheep red blood cells; experiment: Jerne Hemolytic Plaque Assay; type: in vivo, mice
Procedure: This assay measures the IgM or IgG isotypes of specific antibody produced by antigen used to immunize the mice. […] The direct assay detects IgM and the indirect assay detects IgG-specific antibody.
Washed spleen cells are added to an agarose (FMC, Rockland, Me.) preparation containing sheep red blood cells (SRBC) and guinea pig complement. A drop of this mixture is transferred to a small petri dish; a cover slip is then placed over the drop to flatten it. The agarose prep is allowed to solidify. Then, the dishes are placed in a small humidified changer inside a CO-2 incubator overnight.
Small pinpoint cleared areas (plaques) will be observed under the cover slip. The cleared areas are caused by antibody, specific to the SRBC's being released by stimulated spleen cells and in conjunction with the complement, lyse surrounding SRBC's. These plaque forming cells (PFC's) are counted, and calculations are performed to obtain PFC's per […] spleen cells.
1. Spleens are harvested from mice according to a standard procedure and adjusted to a final concentration of 20% in […].
14. Count and record the number of hemolytic plaques per plate. Average plaque counts between the duplicate sets. Multiply the average number of plaques per group by 2.5 to obtain the number of plaque forming cells per million spleen cells.

Structure (SMILES): O=C1CCCC(C2(O)C(=O)OC3C(O)COC32O)C1 (single isomer, unassigned) [KCBL-B]
- CON-A 2.25 ug/ml ([1]; 12.5 mg/kg (Table 8)): 865.6 counts per minute
- PHA 14.0 ug/ml ([1]; 12.5 mg/kg (Table 8)): 1733.1 counts per minute
- RPMI ([1]; 12.5 mg/kg): 67.6 counts per minute
- CON-A 2.25 ug/ml ([1]; 25 mg/kg (Table 8)): 1309.6 counts per minute
- PHA 14.0 ug/ml ([1]; 25 mg/kg (Table 8)): 3512.1 counts per minute
- RPMI ([1]; 25 mg/kg): 84.3 counts per minute
- CON-A 2.25 ug/ml ([1]; 50 mg/kg (Table 8)): 1130.6 counts per minute
- PHA 14.0 ug/ml ([1]; 50 mg/kg (Table 8)): 2540.7 counts per minute
- RPMI ([1]; 50 mg/kg): 56.2 counts per minute
- CON-A 2.25 ug/ml ([1]; 100 mg/kg (Table 8)): 1736.7 counts per minute
- PHA 14.0 ug/ml ([1]; 100 mg/kg (Table 8)): 3515.4 counts per minute
- RPMI ([1]; 100 mg/kg): 84.9 counts per minute
- CON-A 2.25 ug/ml ([1]; 200 mg/kg (Table 8)): 2008.0 counts per minute
- PHA 14.0 ug/ml ([1]; 200 mg/kg (Table 8)): 3305.8 counts per minute
- RPMI ([1]; 200 mg/kg): 52.0 counts per minute
- activation at 12.5 mg/kg ([1]; 12.5 mg/kg (Table 8), read-out: % INCREASE (CON-A 2.25 ug/ml)): 123%
- activation at 12.5 mg/kg ([1]; 12.5 mg/kg (Table 8), read-out: % INCREASE (PHA 14.0 ug/ml)): 12.1%
- activation at 25 mg/kg ([1]; 25 mg/kg (Table 8), read-out: % INCREASE (CON-A 2.25 ug/ml)): 237%
- activation at 25 mg/kg ([1]; 25 mg/kg (Table 8), read-out: % INCREASE (PHA 14.0 ug/ml)): 127%
- activation at 50 mg/kg ([1]; 50 mg/kg (Table 8), read-out: % INCREASE (CON-A 2.25 ug/ml)): 191%
- activation at 50 mg/kg ([1]; 50 mg/kg (Table 8), read-out: % INCREASE (PHA 14.0 ug/ml)): 64.4%
- activation at 100 mg/kg ([1]; 100 mg/kg (Table 8), read-out: % INCREASE (CON-A 2.25 ug/ml)): 347%
- activation at 100 mg/kg ([1]; 100 mg/kg (Table 8), read-out: % INCREASE (PHA 14.0 ug/ml)): 128%
- activation at 200 mg/kg ([1]; 200 mg/kg (Table 8), read-out: % INCREASE (CON-A 2.25 ug/ml)): 418%
- activation at 200 mg/kg ([1]; 200 mg/kg (Table 8), read-out: % INCREASE (PHA 14.0 ug/ml)): 114%
- % INCREASE ([2]; 25 mg/kg (Table 10)): 39%
- PFC ([2]; 25 mg/kg (Table 10)): 66.25 PFC/1 MILLION CELLS
- % INCREASE ([2]; 50 mg/kg (Table 10)): 218%
- PFC ([2]; 50 mg/kg (Table 10)): 151.25 PFC/1 MILLION CELLS
- % INCREASE ([2]; 100 mg/kg (Table 10)): 232%
- PFC ([2]; 100 mg/kg (Table 10)): 157.5 PFC/1 MILLION CELLS
- % INCREASE ([2]; 200 mg/kg (Table 10)): 171%
- PFC ([2]; 200 mg/kg (Table 10)): 128.75 PFC/1 MILLION CELLS
